Reference: patent US20210379035A1, “Methods Of Treating Fabry Patients Having Renal Impairment” (Amicus Therapeutics, Inc., priority 2017, published 2021)

Experiments:
[1] = Plasma migalastat concentration in two Fabry patients with renal impairment (Example 3); type: in vivo, human; conditions: for concentration at 3 h: 3 Hrs Post
Method: Thus, two Fabry patients with renal impairment were evaluated. One patient (P1) had moderate renal impairment, while the other patient (P2) had severe renal impairment. […] The comparison with the results from the ERT-naïve study allows for comparison of PK in the Fabry population with mostly normal, but some mild and a few moderately impaired Fabry patients. None of the patients in the ERT-naïve study had severe renal impairment because these patients were excluded from the study.

Fabry patients [2] = experiment: ERT-naïve study: renal function (eGFR); type: in vivo, human; conditions: for Annualized Change in eGFRCKD-EPI, mean ± SE: ERT-Naïve; for mean±SEM annualized rate of change of eGFRCKD-EPI: ERT-naïve study, baseline to 18/24 months
Method: One study was a 24-month trial, including a 6-month double-blind, placebo-controlled period, in 67 ERT-naïve patients. The other study was an active-controlled, 18-month trial in 57 ERT-experienced patients with a 12-month open-label extension (OLE). Both the ERT-naïve and ERT-experienced studies included Fabry patients having an eGFR of ≥30 mL/min/1.73 m^2. The study designs for these studies are shown in FIGS. 10A-B. In the ERT-naïve study, the primary efficacy parameter was GL-3 inclusions per kidney interstitial capillary. […] A further analysis of data from these studies examined annualized change in […], WBC α-Gal A activity and plasma lyso-Gb3 levels based on renal function at baseline. The results for each renal subgroup are shown in Table 9 below, with the ERT-naïve study subgroups based on […] and the ERT-experienced study subgroups based on mGFRiohexol.

Fabry patients [3] = experiment: ERT-experienced study: LVMi; type: in vivo, human; conditions: Migalastat 0-18 months
Method: (§1) One study was a 24-month trial, including a 6-month double-blind, placebo-controlled period, in 67 ERT-naïve patients. The other study was an active-controlled, 18-month trial in 57 ERT-experienced patients with a 12-month open-label extension (OLE). Both the ERT-naïve and ERT-experienced studies included Fabry patients having an eGFR of ≥30 mL/min/1.73 m^2.
A further analysis of data from these studies examined annualized change in eGFRCKD-EPI, LVMi, WBC α-Gal A activity and plasma lyso-Gb3 levels based on renal function at baseline. The results for each renal subgroup are shown in Table 9 below, with the ERT-naïve study subgroups based on eGFRMDRD and the ERT-experienced study subgroups based on mGFRiohexol.

α-Gal A = experiment: ERT-experienced study: WBC α-Gal A activity; type: in vivo, human; conditions: Migalastat 0-18 months
Method: as §1
A further analysis of data from these studies examined annualized change in eGFRCKD-EPI, LVMi, WBC α-Gal A activity and plasma lyso-Gb3 levels based on renal function at baseline.

Fabry patients [4] = experiment: ERT-experienced study: renal function (eGFR, mGFR); type: in vivo, human; conditions: for Annualized Change in eGFRCKD-EPI, mean ± SE: ERT-Experienced, Migalastat 0-18 months; for mean annualized rate of change of eGFRCKD-EPI / mean annualized rate of change mGFRiohexol / mean±SE annualized rate of change of eGFRCKD-EPI: ERT-experienced study; for mean annualized rate of change of eGFRCKD-EPI: baseline to 18 months (FIG. 12A); for mean annualized rate of change mGFRiohexol: baseline to 18 months (FIG. 12B); for mean±SE annualized rate of change of eGFRCKD-EPI: baseline to 18 months (FIG. 13)
Method: One study was a 24-month trial, including a 6-month double-blind, placebo-controlled period, in 67 ERT-naïve patients. The other study was an active-controlled, 18-month trial in 57 ERT-experienced patients with a 12-month open-label extension (OLE). Both the ERT-naïve and ERT-experienced studies included Fabry patients having an eGFR of ≥30 mL/min/1.73 m^2. […] Annualized change in eGFR using the Modification of Diet in Renal Disease ([…]) was also calculated. […] Although the number of patients with moderate renal impairment included in this analysis is two (compared to three for the ERT-naïve study), the data supports the efficacy of migalastat when administered to patients with some form of renal impairment. A further analysis of data from these studies examined annualized change in […], WBC α-Gal A activity and plasma lyso-Gb3 levels based on renal function at baseline. The results for each renal subgroup are shown in Table 9 below, with the ERT-naïve study subgroups based on […] and the ERT-experienced study subgroups based on mGFRiohexol.

[5] = Additional simulations on renal impairment subjects (Example 4); parameters: species or system human; conditions: simulation
Fabry patients [6] = experiment: Long-term analysis of 12 patients that completed multiple studies: eGFR; type: in vivo, human
Source text: In addition to the studies described above, other patients also received migalastat therapy in other studies such as dose-finding studies and/or long-term extension studies. […] 12 patients that completed multiple studies were further analyzed. Linear regression was used to calculate the annualized rate of change in […] from baseline.

Fabry patients [7] = experiment: Analysis of 52 ERT-naive patients by baseline proteinuria: eGFR; type: in vivo, human; conditions: for Annualized eGFRCKD-EPI Change Rate, Mean (SE): ERT-naive, migalastat HCl 150 mg QOD ≥17 months; for Annualized eGFR Rate of Change (eGFRMDRD), Mean (SEM): Migalastat cohort
Method: Another analysis was performed on patients who participated in multiple studies for the use of migalastat. […] Results for […] were compared with changes in […] reported in the literature for untreated patients with Fabry disease (natural history cohort; Schiffmann R et al. Nephrol Dial Transplant. 2009; 24:2102-11) and are shown in Table 15 below: […]

[8] = P1, second measurement set 6 months after the first
[9] = mild or moderate renal impairment
[10] = Females, baseline urine protein 100-1000 mg/24 h
[11] = Females, baseline urine protein <100 mg/24 h
[12] = Females, baseline urine protein >1000 mg/24 h
[13] = Males, baseline urine protein 100-1000 mg/24 h
[14] = Males, baseline urine protein <100 mg/24 h
[15] = Males, baseline urine protein >1000 mg/24 h

## OC[C@H]1NC[C@H](O)[C@@H](O)[C@H]1O [migalastat, (2R,3S,4R,5S)-2-(hydroxymethyl) piperdine-3,4,5-triol]
[1]; [8]
  increase of C48 concentration: 49%
  increase of Cmax: 33%
[1]; human, plasma, Migalastat Conc 6 months later, Fabry patient P1, moderate renal impairment
  concentration at 3 h: 2160 ng/mL
[1]; human, plasma, Migalastat Conc 6 months later, Fabry patient P1, moderate renal impairment, 24 Hrs Post
  concentration at 24 h: 211 ng/mL
[1]; human, plasma, Migalastat Conc 6 months later, Fabry patient P1, moderate renal impairment, 48 Hrs Post
  concentration at 48 h: 62.4 ng/mL
[1]; human, plasma, Migalastat Conc, Fabry patient P1, moderate renal impairment
  concentration at 3 h: 1620 ng/mL
[1]; human, plasma, Migalastat Conc, Fabry patient P1, moderate renal impairment, 24 Hrs Post
  concentration at 24 h: 168 ng/mL
[1]; human, plasma, Migalastat Conc, Fabry patient P1, moderate renal impairment, 48 Hrs Post
  concentration at 48 h: 41.8 ng/mL
[1]; human, plasma, Migalastat Concentration, Fabry patient P2, severe renal impairment, 2 h, Occasion 1
  concentration at 2 h: 564 ng/mL
[1]; human, plasma, Migalastat Concentration, Fabry patient P2, severe renal impairment, 24 h, Occasion 2
  concentration at 24 h: 569 ng/mL
[1]; human, plasma, Migalastat Concentration, Fabry patient P2, severe renal impairment, 48 h, Occasion 1
  concentration at 48 h: 322 ng/mL
[1]; human, plasma, Migalastat Concentration, Fabry patient P2, severe renal impairment, 48 h, Occasion 2
  concentration at 48 h: 260 ng/mL
Fabry patients [2]; Migalastat→Migalastat 0-24 months, renal subgroup 30 to < 60
  Annualized Change in eGFRCKD-EPI, mean ± SE: +3.2 ± 1.1 mL/min/1.73 m^2
Fabry patients [2]; Migalastat→Migalastat 0-24 months, renal subgroup ≥60
  Annualized Change in eGFRCKD-EPI, mean ± SE: −0.7 ± 0.6 mL/min/1.73 m^2
Fabry patients [2]; Placebo→Migalastat 6-24 months, renal subgroup 30 to < 60
  Annualized Change in eGFRCKD-EPI, mean ± SE: −2.8 ± 2.8 mL/min/1.73 m^2
Fabry patients [2]; Placebo→Migalastat 6-24 months, renal subgroup ≥60
  Annualized Change in eGFRCKD-EPI, mean ± SE: +0.1 ± 0.7 mL/min/1.73 m^2
Fabry patients [2]; mild renal impairment
  mean±SEM annualized rate of change of eGFRCKD-EPI: −0.8±1.01 mL/min/1.73 m^2/year
Fabry patients [2]; moderate renal impairment
  mean±SEM annualized rate of change of eGFRCKD-EPI: −0.7±3.97 mL/min/1.73 m^2/year
Fabry patients [2]; normal renal function
  mean±SEM annualized rate of change of eGFRCKD-EPI: 0.2±0.90 mL/min/1.73 m^2/year
Fabry patients [3]; renal subgroup 30 to < 60
  LVMi, change from baseline, mean ± SE: −10.2 ± 2.4 gm^2
Fabry patients [3]; renal subgroup ≥60
  LVMi, change from baseline, mean ± SE: −4.8 ± 2.3 gm^2
α-Gal A; renal subgroup 30 to < 60
  WBC α-Gal A Activity (males only), change from baseline, mean ± SE: +4.6 ± 2.3 4MU/hr/mg
α-Gal A; renal subgroup ≥60
  WBC α-Gal A Activity (males only), change from baseline, mean ± SE: +5.5 ± 1.4 4MU/hr/mg
Fabry patients [4]; renal subgroup 30 to < 60
  Annualized Change in eGFRCKD-EPI, mean ± SE: −4.2 ± 2.7 mL/min/1.73 m^2
Fabry patients [4]; renal subgroup ≥60
  Annualized Change in eGFRCKD-EPI, mean ± SE: −0.4 ± 0.8 mL/min/1.73 m^2
Fabry patients [4]; [9]
  mean annualized rate of change of eGFRCKD-EPI: −3.33 mL/min/1.73 m^2/year
  mean annualized rate of change mGFRiohexol: −3.51 mL/min/1.73 m^2/year
Fabry patients [4]; normal renal function
  mean annualized rate of change of eGFRCKD-EPI: −0.4 mL/min/1.73 m^2/year
  mean annualized rate of change mGFRiohexol: −4.35 mL/min/1.73 m^2/year
  mean±SE annualized rate of change of eGFRCKD-EPI: −2.0±0.57 mL/min/1.73 m^2/year
Fabry patients [4]; mild renal impairment
  mean±SE annualized rate of change of eGFRCKD-EPI: −0.2±1.25 mL/min/1.73 m^2/year
Fabry patients [4]; moderate renal impairment
  mean±SE annualized rate of change of eGFRCKD-EPI: −4.5±2.68 mL/min/1.73 m^2/year
[5]; Mild (>=60-<90) vs Normal
  AUC Ratio: 1.2
[5]; Moderate (>=30-<60) vs Normal
  AUC Ratio: 1.9
[5]; Severe (<30) vs Normal
  AUC Ratio: 4.8
Fabry patients [6]; entire duration of migalastat treatment, Patient 1
  Annualized Rate of Change in eGFRCKD-EPI: −0.853 mL/min/1.72 m^2
Fabry patients [6]; entire duration of migalastat treatment, Patient 2
  Annualized Rate of Change in eGFRCKD-EPI: 0.584 mL/min/1.72 m^2
Fabry patients [6]; entire duration of migalastat treatment, Patient 3
  Annualized Rate of Change in eGFRCKD-EPI: −2.838 mL/min/1.72 m^2
Fabry patients [6]; entire duration of migalastat treatment, Patient 4
  Annualized Rate of Change in eGFRCKD-EPI: 0.488 mL/min/1.72 m^2
Fabry patients [6]; entire duration of migalastat treatment, Patient 5
  Annualized Rate of Change in eGFRCKD-EPI: 0.001 mL/min/1.72 m^2
Fabry patients [6]; entire duration of migalastat treatment, Patient 6
  Annualized Rate of Change in eGFRCKD-EPI: −2.179 mL/min/1.72 m^2
Fabry patients [6]; entire duration of migalastat treatment, Patient 7
  Annualized Rate of Change in eGFRCKD-EPI: −0.704 mL/min/1.72 m^2
Fabry patients [6]; entire duration of migalastat treatment, Patient 8
  Annualized Rate of Change in eGFRCKD-EPI: −1.09 mL/min/1.72 m^2
Fabry patients [6]; entire duration of migalastat treatment, Patient 9
  Annualized Rate of Change in eGFRCKD-EPI: −0.443 mL/min/1.72 m^2
Fabry patients [6]; entire duration of migalastat treatment, Patient 10
  Annualized Rate of Change in eGFRCKD-EPI: 0.219 mL/min/1.72 m^2
Fabry patients [6]; entire duration of migalastat treatment, Patient 11
  Annualized Rate of Change in eGFRCKD-EPI: −0.342 mL/min/1.72 m^2
Fabry patients [6]; entire duration of migalastat treatment, Patient 12
  Annualized Rate of Change in eGFRCKD-EPI: −0.871 mL/min/1.72 m^2
Fabry patients [6]; entire migalastat treatment period (mean exposure 8.2 years), Mean of 12 patients
  Annualized Rate of Change in eGFRCKD-EPI: −0.67 mL/min/1.72 m^2
Fabry patients [7]; [10]
  Annualized eGFRCKD-EPI Change Rate, Mean (SE): −0.3 (1.0) mL/min/1.73 m^2
  Annualized eGFR Rate of Change (eGFRMDRD), Mean (SEM): 1.3 (1.5) mL/min/m^2
Fabry patients [7]; [11]
  Annualized eGFRCKD-EPI Change Rate, Mean (SE): −0.9 (0.4) mL/min/1.73 m^2
  Annualized eGFR Rate of Change (eGFRMDRD), Mean (SEM): −0.9 (0.5) mL/min/m^2
Fabry patients [7]; [12]
  Annualized eGFRCKD-EPI Change Rate, Mean (SE): −2.2 (1.3) mL/min/1.73 m^2
  Annualized eGFR Rate of Change (eGFRMDRD), Mean (SEM): −1.7 (1.1) mL/min/m^2
Fabry patients [7]; [13]
  Annualized eGFRCKD-EPI Change Rate, Mean (SE): 0.2 (0.8) mL/min/1.73 m^2
  Annualized eGFR Rate of Change (eGFRMDRD), Mean (SEM): 0.9 (1.0) mL/min/m^2
Fabry patients [7]; [14]
  Annualized eGFRCKD-EPI Change Rate, Mean (SE): 0.4 (1.0) mL/min/1.73 m^2
  Annualized eGFR Rate of Change (eGFRMDRD), Mean (SEM): 1.2 (1.2) mL/min/m^2
Fabry patients [7]; [15]
  Annualized eGFRCKD-EPI Change Rate, Mean (SE): −5.1 (0.1) mL/min/1.73 m^2
  Annualized eGFR Rate of Change (eGFRMDRD), Mean (SEM): −4.3 (0.1) mL/min/m^2
